Structure (SMILES)	melting point
CN1CCN(c2ccc(Nc3cc(-c4cccc(N5Cc6cc(C(C)(C)C)ccc6C5=O)c4CO)cn(C)c3=O)nn2)CC1	171 to 172 °C
COC(=O)c1cc2ccc3c(c2c(-c2ccc4c(c2)OCO4)c1C(=O)OC)OCO3	157 to 159 °C
OC(CNCc1ccccc1)c1cc(C(F)(F)F)nc2c(C(F)(F)F)cccc12 (centres undefined)	138 to 139 °C
CCc1c(C(C)C)cc(C(C)C)c(C(C)O)c1-c1ccc(F)cc1 (single isomer, unassigned; (+))	143 to 145 °C
CC(=O)N1OC(C)C(=S)NC1c1ccccc1C (centres undefined)	167 to 170 °C
COc1cc(NS(=O)(=O)c2ccc(Cl)cc2)c(C(=O)Nc2ccc(S(=O)(=O)F)cc2)cc1OC	216 to 219 °C
CCCNC(=O)C1(CCCCSc2ccccc2)c2ccccc2-c2ccccc21	50 to 53 °C
Cc1ccc(S(=O)(=O)OCCc2ccc3[nH]cc(S(=O)(=O)c4ccccc4)c3c2)cc1	60 to 63 °C
O=C1c2cc(Cl)ccc2N(N2CCOCC2)C2=NCCN12	238 to 239 °C
Cc1c(-c2ccccc2)nc2ccc(-c3cccc(CO)c3)cn12	222 to 223 °C
Cc1cc([N+](=O)[O-])ccc1N1CCN(C(=O)OC(C)(C)C)CC1	122 to 123 °C
C/C(=N\O)C(=O)c1ccc(F)cc1F	99 to 101 °C
CNC(=O)Nc1ccc(OC)c(-c2ccc(C[C@H](NC(=O)c3c(Cl)cccc3Cl)C(=O)O)cc2)c1OC	236 to 237 °C
CCOc1ccc(C2=NN(c3ccc(C(=O)N4CCN(c5cnn(-c6ccccc6)c(=O)c5Cl)CC4)cc3)C(=O)[C@@H]3CC=CC[C@H]23)cc1OCC	148 to 151 °C
COc1ccc(CSc2nnc(-c3ccc4c(c3)CCO4)o2)cc1	121 to 124 °C
NNc1nncc(-c2ccccc2F)n1	171 to 174 °C
Cc1c(Br)c2c(c(C)c1NC(=O)CC(C)(C)C)C(c1ccc(C(C)C)cc1)CS2 (centres undefined)	207 to 208 °C
CN(C)CCCC(=O)Cc1ccc2c(c1)Cc1cccnc1O2	76 to 78 °C
C=CCCN1C(C)=C(C(=O)OC)C(c2ccccc2)C(C(=O)OC)=C1C	108 to 110 °C
CCc1nc2c(N)nc3ccccc3c2n1CCCC(C)=O	206 to 208 °C
O=C(O)c1ccc(C(=O)NCCc2ccccc2)cc1	237 to 238 °C
CCNC(=O)C1CCN(c2cc(-c3ccc(Cl)cc3)nc3ccccc23)CC1	231 to 233 °C
O=C(CCCl)c1cc2ccccc2o1	116 to 118 °C
CC(C)(C)c1cc([PH](=O)c2cc(C(C)(C)C)cc(C(C)(C)C)c2)cc(C(C)(C)C)c1	185 °C
Clc1ccc2c(c1)N=C(NCc1cccnc1)c1ccccc1S2	152 to 153 °C

Structure (SMILES)	melting point
Cc1ccc2ccc(C#N)cc2c1	134 to 136 °C
Cc1cc(C2CCN(S(=O)(=O)C3(C(=O)NO)CCOCC3)CC2)ccc1-c1cccc(OCCO)n1	193 to 194 °C
O=C(NCCNCc1ccccc1)c1ccc(Cl)cn1	45 to 46 °C
CN(C)C=CC(=O)c1ccccc1[N+](=O)[O-]	118 to 121 °C
CCCCc1ncc(/C=C(\Cc2cccs2)C(=O)O)n1Cc1cccc([N+](=O)[O-])c1	182 to 184 °C
COc1ccc(CC2CNC(=O)N2)cc1OC1CCCC1 (centres undefined)	107 to 111 °C
CN(CC1CCN(c2ccc(OC(F)(F)F)cc2)CC1)c1ccc(OC[C@@]2(C)Cn3cc([N+](=O)[O-])nc3O2)cc1	172 to 175 °C
CC(C)(C)c1ccc(N2CCCN(c3cc[nH]c(=S)c3C#N)CC2)cc1	257 to 258 °C
Cc1cc2c(NC(=S)N3Cc4ccsc4CC3CO)cccc2cn1 (racemic)	190 °C
O=[N+]([O-])c1ccnc(-c2cc(C(F)(F)F)ccc2F)c1	58.1 °C
O=C1CCC(c2ccccc2)(c2ccccc2)C(C[N+](=O)[O-])C1 (racemic)	164 °C
Nc1ccc(C(=O)O)c(C(=O)O)c1	188 °C
CCOC(=O)C(CC1C(O)C2CCN1CC2)c1ccccc1 (centres undefined)	148 °C
Cn1c2ccccc2c(=O)n2nc(C#N)cc12	307 to 310 °C
Cc1ccc(COc2ncc(F)c(NS(C)(=O)=O)n2)cc1	145 to 148 °C
CC(C)C[C@@H](CO)NC(=O)[C@H](Cc1c[nH]cn1)NC(=O)[C@H](CSSc1ncccc1[N+](=O)[O-])NC(=O)OC(C)(C)C	185 to 188 °C
COc1ccc(-c2sc3c(c2CBr)c(=O)c(-c2cnco2)cn3Cc2ccccc2F)cc1	234 to 236 °C
CC1(Cc2ccccc2)Cc2cc(O)c(Cl)c(Cl)c2C1=O (centres undefined)	219 to 221 °C
O=C(O)c1cc(-c2nccs2)[nH]c1C(CC1CCOCC1)c1ccc(S(=O)(=O)C2CC2)cc1 (centres undefined)	153 to 155 °C
COc1ncnc(OC)c1NC(=O)c1cccs1	198 to 200 °C
OC1CCCc2ccc(-c3ccc4nc(-c5ccc(Cl)cc5)cn4c3)cc21 (centres undefined)	232 to 234 °C
NCc1ccc(N2CCCN(c3ccc(CCC(=O)O)cc3)C2=O)cc1	229 to 231 °C
COC(=O)CCCc1cc2nc(Cl)ccc2n1S(=O)(=O)c1cccc2nc(C)sc12	138 °C
CCOC(=O)c1cc2c(Cl)cccc2n1[C@H](C)CNC(=O)OC(C)(C)C	115 to 119 °C

Source: a melting point compilation (Tetko et al.; mined from patent text by program, amines drawn as free bases though some values may be those of a salt)
